Assay results reported in patent EP4792811A1, “S1PR4 REGULATOR COMPOUND FOR MUSCLE DISEASE TREATMENT AND APPLICATION THEREOF” (Shengyuan Zetong (Shanghai) Pharmaceutical Co., Ltd, priority 2023, dated 2025).
“Also recorded” adds a separate entry of the source.

Legend:
hS1P4 = target: T1, hS1P4 (Homo sapiens, UniProt O95977); experiment: Tango β-arrestin recruitment assay, Tango-hS1P4-CHO; format: cell-based; conditions: final concentration 45 µM, 9 serial dilutions at 5-fold intervals; 20 h drug treatment; luciferase readout
T1 construct: expressed in transfected cells; host or cells: CHO-K1
T1 sequence (O95977 1-384): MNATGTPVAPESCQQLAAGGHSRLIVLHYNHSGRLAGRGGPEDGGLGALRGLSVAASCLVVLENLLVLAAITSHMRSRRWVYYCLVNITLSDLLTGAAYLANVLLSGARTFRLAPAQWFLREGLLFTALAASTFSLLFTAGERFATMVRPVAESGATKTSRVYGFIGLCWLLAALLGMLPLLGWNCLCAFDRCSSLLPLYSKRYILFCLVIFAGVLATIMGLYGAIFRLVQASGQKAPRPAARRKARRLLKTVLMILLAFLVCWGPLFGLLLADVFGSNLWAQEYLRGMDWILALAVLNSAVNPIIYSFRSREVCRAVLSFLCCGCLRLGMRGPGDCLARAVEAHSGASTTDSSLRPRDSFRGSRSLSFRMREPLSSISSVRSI
From the text: (§1) The Tango assay detects ligand-dependent GPCR activity through the interaction between β-arrestin and GPCRs. […] The NTEV fragment and the tetracycline transactivator (tTA), an artificial transcription factor, are fused at the C-terminus of the GPCR, while the CTEV fragment is fused to human β-arrestin 2. To enhance the stability of the interaction between GPCR and β-arrestin, a short sequence from the C-terminus of the human arginine vasopressin receptor 2 (V2 tail) is inserted between the GPCR and NTEV. The V2 tail contains multiple GRK phosphorylation sites, which strengthen β-arrestin binding upon phosphorylation. The CTEV fragment carries the stabile point mutation S219P and is truncated at residue 221 to remove the autoinhibitory C-terminal tail. Meanwhile, β-arrestin 2 is truncated to lack the entire C-terminal tail (residues 383-410 deleted). This truncation confers robust stimulus-dependent receptor desensitization, thereby improving detection sensitivity compared with wild-type β-arrestin 2. The UAS reporter construct consists of upstream activating sequence (UAS) elements, a minimal CMV promoter, and a tTA-dependent luciferase reporter gene. Therefore, constructing Tango cells requires the co-transfection of the above three plasmids into host cells. Upon GPCR activation and β-arrestin recruitment, the TEV enzyme at the β-arrestin terminus cleaves tTA from the GPCR C-terminus. The released tTA initiates tTA-dependent luciferase transcription, and compound activity is ultimately determined by measuring luminescence intensity.
(§2) • 1) Tango cell line from was digested from the culture dish respectively. After cell counting, the cells were plated at a density of 10,000 cells per well with […] into a white opaque 96-well plate (add 60 µL D'Hanks to the surrounding wells), and incubated overnight (20 h) in a 5% CO2 incubator at 37°C. The cell density will reach approximately 90% the next day. • 2) After 20 h, 30 µL of serially diluted compound solution was added to each well. The control group was supplemented with 30 µL F12K complete medium. Each group had three replicate wells. • 3) Samples were collected after 20 h of drug treatment.
(§3) (All compounds were tested at a final concentration of 45 µM, with 9 serial dilutions at 5-fold intervals. 1 µM BAF-312 was used as the positive control for S1PR1, and 25 µM BAF-312 was used as the positive control for S1PR4.)
(§4) ^a β-arrestin recruitment activity based on Tango-S1PR1-CHO-K1 and Tango-S1PR4-CHO-K1 cells, expressed as mean EC50 values ± SD. ^b FLIPR assays were performed using S1PR2-CHO and S1PR5-CHO cell lines, expressed as mean EC50 values ± SD. ^c β-arrestin recruitment activity based on PathHunter CHO-K1-S1PR3 cells, expressed as mean EC50 values ± SD. Data are the mean of at least two independent determinations, reported as mean ± SD (standard deviation).

hS1P1 = target: T2, hS1P1 (Homo sapiens, UniProt P21453); experiment: Tango β-arrestin recruitment assay, Tango-hS1P1-CHO; format: cell-based; conditions: final concentration 45 µM, 9 serial dilutions at 5-fold intervals; 20 h drug treatment; luciferase readout
T2 construct: expressed in transfected cells; host or cells: CHO-K1
T2 sequence (P21453 whole entry): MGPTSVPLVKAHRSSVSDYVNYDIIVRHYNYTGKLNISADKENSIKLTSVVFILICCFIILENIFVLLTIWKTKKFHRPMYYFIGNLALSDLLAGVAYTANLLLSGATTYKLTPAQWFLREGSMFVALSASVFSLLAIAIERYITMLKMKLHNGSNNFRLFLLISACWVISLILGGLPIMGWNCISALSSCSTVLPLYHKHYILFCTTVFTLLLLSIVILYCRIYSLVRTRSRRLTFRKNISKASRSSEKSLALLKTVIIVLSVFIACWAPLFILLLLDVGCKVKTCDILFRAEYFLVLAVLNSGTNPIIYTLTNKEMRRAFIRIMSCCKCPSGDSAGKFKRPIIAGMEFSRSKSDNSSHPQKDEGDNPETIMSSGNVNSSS
From the text: as §1, §2, §3, §4

[1] = tested on: S1PR4-R82C/NDUFA10-R217W double-mutant mice; experiment: In vivo efficacy in S1PR4-R82C/NDUFA10-R217W double-mutant muscular dystrophy mice; conditions: 1 mg/kg intragastric once daily
Procedure: Experimental Animals: A total of 34 S1PR4-R82C/NDUFA10-R217W mice were divided into 6 groups as shown below.
Intragastric administration was initiated on Day 0, and body weight was measured daily during the experiment to adjust the drug dosage. Grip strength was measured at the beginning and end of the experiment to observe motor changes in mice. Changes in the limb grip strength, serum creatine kinase content, and muscle fibrosis/inflammation in mice were detected as indicators for evaluating drug efficacy.
(§5) The mouse was placed horizontally on the grip test board. The mouse's tail was held and pulled gently in the opposite direction without using excessive force. The tail was gradually pulled until the mouse released the grip force sensor. The maximum value recorded by the grip force sensor is the grip strength. The test was repeated for 3 times and the average value was taken.
(§6) After the completion of administration, blood was collected via the orbital sinus, allowed to stand for 30 minutes, centrifuged at 3000 rpm at 4°C for 15 minutes, and serum was extracted, stored frozen at -20°C, and detected in accordance with the kit instructions.
(§7) After the experiment, the tibialis anterior, extensor digitorum longus, and diaphragm of the mice were harvested, fixed, sectioned, and subjected to HE staining and Sirius Red staining to observe the degree of muscle fibrosis. The slice was subjected to immunofluorescence staining with F4/80 to observe the level of muscle inflammation.

[2] = tested on: Duchenne muscular dystrophy model mice; experiment: In vivo pharmacodynamic test in Duchenne muscular dystrophy model mice (Compound 30)
Procedure: Experimental Animals: A total of 35 Duchenne muscular dystrophy model mice were divided into 6 groups as shown below.
Intragastric administration was initiated from Day 0. Body weight was measured daily during the experiment to adjust the drug dosage. Grip strength tests were performed every 2 days to observe changes in the mice's grip strength until the experiment concluded on Day 21. Changes in the limb grip strength, serum creatine kinase content, and muscle fibrosis/inflammation in the mice were detected as indicators for evaluating drug efficacy.
as §5, §6, §7

[3] = 1 mg/kg intragastric once daily

Row | SMILES | EC50 (hS1P4) [nM] | EC50 (hS1P1) [nM] | further results
1 | CCc1cc(/C(C)=N/OCc2ccc(-c3cncnc3C)c(C)c2)ccc1CN1CC[C@H](C(=O)O)C1 [Compound 83, (S, E)-1-(2-ethyl-4-(1-(((3-methyl-4-(4-methylpyrimidin-5-yl)benzyl)oxy)imino)ethyl)benzyl)pyrrolidine-3-carboxylic acid] | 40.95 ± 0.22 |  | 
2 | CCc1cc(/C(C)=N/OCc2ccc(-c3cnc(F)cn3)c(C)c2)ccc1CN1CC[C@@H](C(=O)O)C1 [Compound 95, (R, E)-1-(2-ethyl-4-(1-(((4-(5-fluoropyrazin-2-yl)-3-methylbenzyl)oxy)imino)ethyl)benzyl)pyrrolidine-3-carboxylic acid] | 75.4 ± 5.72 | 125 ± 14.5 | 
3 | CCc1cc(/C(C)=N/OCc2ccc(-c3cnsc3)cc2)ccc1CN1CC[C@H](C(=O)O)C1 [Compound 74] | 13.13 ± 0.02 |  | 
4 | CCc1cc(/C(C)=N/OCc2ccc(-c3cnc(F)cn3)c(C)c2)ccc1CN1CCC(C(=O)O)C1 (stereo not drawn) [Compound 4, (E)-1-(2-ethyl-4-(1-(((4-(5-fluoropyrazin-2-yl)-3-methylbenzyl)oxy)imino)ethyl)benzyl)pyrrolidine-3-carboxylic acid] | 10.6 ± 1.19 |  | 
5 | CCc1cc(/C(C)=N/OCc2ccc(-c3ccns3)cc2)ccc1CN1CC[C@H](C(=O)O)C1 [Compound 75] | 34.17 ± 0.22 |  | 
6 | CCc1cc(/C(C)=N/OCc2ccc(-c3cccs3)cc2)ccc1CN1CC[C@H](C(=O)O)C1 [Compound 73] | 10.7 ± 0.11 |  | 
7 | CCc1cc(/C(C)=N/OCc2ccc(OC(C)C)c(C#N)c2)ccc1CN1CC(C(=O)O)C1 [Compound 16, (E)-1-(4-(1-(((3-cyano-4-isopropoxybenzyl)oxy)imino)ethyl)-2-ethylbenzyl)azetidine-3-carboxylic acid] |  | 23.2 ± 10.9 | 
8 | CCc1cc(/C(C)=N/OCc2ccc(-c3cnc(F)cn3)cc2)ccc1CN1CC[C@H](C(=O)O)C1 [Compound 89] | 135 ± 17.8 | 5250 ± 235 | 
9 | CCc1cc(/C(C)=N/OCc2cccc(C(F)(F)F)c2)ccc1CN1CC(C(=O)O)C1 [Compound 13] |  | 5100 ± 1510 | 
10 | C[C@]12C=CC(=O)C=C1CC[C@@H]1[C@@H]2[C@@H](O)C[C@@]2(C)[C@H]1CC[C@]2(O)C(=O)CO [prednisolone, reference compound] |  |  | grip strength (ratio of grip strength to body weight) ([1]; after 21 days of treatment): significantly increased; collagen deposition (collagen area ratio) ([1]; after administration): significantly reduced collagen deposition; serum creatine kinase level ([1]; after treatment): no such lowering effect; also recorded: no reduction; body weight gain trend ([1]; compared with the model group): relatively slow; collagen deposition (collagen area ratio) [2, 3]: significantly reduced collagen deposition; number of centrally nucleated fibers (HE staining) [2, 3]: significantly reduced; serum creatine kinase level ([2]; 1 mg/kg intragastric once daily, after treatment): significantly reduced; body weight growth trend ([2]; 1 mg/kg intragastric once daily, compared with the model group): no difference; macrophage content (F4/80 immunofluorescence, muscle inflammation) ([2]; intragastric once daily): significantly reduced macrophage content
11 | CCc1cc(/C(C)=N/OCc2ccc(-c3cnc(F)nc3)c(C)c2)ccc1CN1CC[C@H](C(=O)O)C1 [Compound 80, (S, E)-1-(2-ethyl-4-(1-(((4-(2-fluoropyrimidin-5-yl)-3-methylbenzyl)oxy)imino)ethyl)benzyl)pyrrolidine-3-carboxylic acid] | 18 ± 0.525 |  | 
12 | C/C(=N\OCc1ccc(C2CCCCC2)c(C(F)(F)F)c1)c1ccc(CN2CC(C(=O)O)C2)c(F)c1 [Compound 11] | 573 ± 106 | 5.63 ± 0.15 | 
13 | CCc1cc(/C(C)=N/OCc2cc(C)c(-c3cnc(F)cn3)cc2F)ccc1CN1CC[C@H](C(=O)O)C1 [Compound 94, (S, E)-1-(2-ethyl-4-(1-(((2-fluoro-4-(5-fluoropyrazin-2-yl)-5-methylbenzyl)oxy)imino)ethyl)benzyl)pyrrolidine-3-carboxylic acid] | 13.9 ± 1.48 | 614 ± 50.2 | 
14 | CCc1cc(/C(C)=N/OCc2ccc(-c3cnc(F)cn3)c(C)c2F)ccc1CN1CC[C@H](C(=O)O)C1 [Compound 93, (S, E)-1-(2-ethyl-4-(1-(((2-fluoro-4-(5-fluoropyrazin-2-yl)-3-methylbenzyl)oxy)imino)ethyl)benzyl)pyrrolidine-3-carboxylic acid] | 12 ± 1 | 348 ± 40.4 | 
15 | CCc1cc(/C(C)=N/OCc2ccc(-c3cnc(F)cn3)c(C)c2)ccc1CN1CC(C(=O)O)C1 [Compound 91, (E)-1-(2-ethyl-4-(1-(((3-methyl-4-(5-fluoropyrazin-2-yl)-benzyl)oxy)imino)ethyl)benzyl)azetidine-3-carboxylic acid] |  | 54.45 ± 0.2 | 
16 | CCc1cc(/C(C)=N/OCc2ccc(-c3cnc(F)cn3)c(C)c2)ccc1CN1CCC(C(=O)O)CC1 [Compound 90, (E)-1-(2-ethyl-4-(1-(((3-methyl-4-(5-fluoropyrazin-2-yl)-benzyl)oxy)imino)ethyl)benzyl)piperidine-4-carboxylic acid] |  | 5950 ± 72.8 | 
17 | CCc1cc(/C(C)=N/OCc2ccc3ccccc3c2)ccc1CN1CC(C(=O)O)C1 [Compound 15] | 560 ± 185 |  | 
18 | CCc1cc(/C(C)=N/OCc2ccc(-c3cncnc3)cc2)ccc1CN1CC[C@H](C(=O)O)C1 [Compound 70, (S, E)-1-(2-ethyl-4-(1-(((4-(pyrimidin-5-yl)benzyl)oxy)imino)ethyl)benzyl)pyrrolidine-3-carboxylic acid] | 36.2 ± 6.58 |  | 
19 | CCc1cc(/C(C)=N/OCc2ccc(-c3cnc(F)cn3)c(F)c2)ccc1CN1CC[C@H](C(=O)O)C1 [Compound 88, (S, E)-1-(2-ethyl-4-(1-(((3-fluoro-4-(5-fluoropyrazin-2-yl)benzyl)oxy)imino)ethyl)benzyl)pyrrolidine-3-carboxylic acid] | 27.4 ± 1.12 | 3210 ± 112 | 
